{
  "source": "patent US9272037B2",
  "about": "“Method to treat premature ejaculation in humans” (priority 2005, dated 2016)",
  "origin": "cited, not measured here",
  "key": {"[1]": {"target": "μ-opiate receptors (Homo sapiens, UniProt P35372)", "sequence (P35372 whole entry)": "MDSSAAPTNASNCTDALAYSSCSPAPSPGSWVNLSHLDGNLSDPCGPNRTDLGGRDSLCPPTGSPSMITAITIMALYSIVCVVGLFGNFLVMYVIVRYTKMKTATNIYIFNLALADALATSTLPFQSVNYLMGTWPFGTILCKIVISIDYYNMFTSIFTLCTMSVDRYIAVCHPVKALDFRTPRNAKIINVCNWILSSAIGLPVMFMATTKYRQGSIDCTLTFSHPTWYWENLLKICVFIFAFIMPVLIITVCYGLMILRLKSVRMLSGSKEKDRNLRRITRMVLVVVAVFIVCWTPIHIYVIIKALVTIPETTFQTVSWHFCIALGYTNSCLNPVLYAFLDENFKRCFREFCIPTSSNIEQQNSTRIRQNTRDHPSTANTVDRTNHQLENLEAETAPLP"}, "[2]": {"conditions": "for accumulation during multiple dose treatment: multiple dose treatment with tramadol"}, "[3]": {"conditions": "single oral dose of tramadol 100 mg"}, "[4]": {"tested_on": "child", "conditions": "inadvertent administration of 4 mg/kg to a child"}, "[5]": {"tested_on": "humans"}, "[6]": {"target": "phosphodiesterase type 5 (PDE5) (Homo sapiens, UniProt O76074)", "conditions": "PDE5 versus PDE6"}, "[7]": {"conditions": "oral, Viagra formulation"}},
  "data": [
    {"compound": "COc1cccc(C2(O)CCCCC2CN(C)C)c1", "note": "(racemic) [tramadol, (+/−)-trans (RR,SS)-2-[(di-methylamino)methyl]-1-(3-methoxyphenyl)cyclohexanol]", "values": [
      {"measurement": "affinity for μ-opiate receptors, fold less than codeine", "setting": "[1]; versus codeine", "value": 10, "unit": "fold"},
      {"measurement": "affinity for μ-opiate receptors, fold less than d-propoxyphene", "setting": "[1]; versus d-propoxyphene", "value": 100, "unit": "fold"},
      {"measurement": "affinity for μ-opiate receptors relative to dextromethorphan", "setting": "[1]; versus dextromethorphan", "value": "equivalent to dextromethorphan"},
      {"measurement": "affinity for μ-opiate receptors, fold less than morphine", "setting": "[1]; versus morphine", "value": "6,000 fold"},
      {"measurement": "accumulation during multiple dose treatment", "setting": "[2]", "value": "approximately 2 fold"},
      {"measurement": "time to peak serum concentrations", "setting": "[2]; oral administration", "value": "≤ 2", "unit": "h"},
      {"measurement": "duration of the analgesic effect", "setting": "[3]", "value": "about 6 hours"},
      {"measurement": "adverse event after overdose", "setting": "[4]", "value": "seizure activity"}
    ]},
    {"compound": "CN(C)C[C@H]1CCCC[C@]1(O)c1cccc(O)c1", "note": "[O-desmethyltramadol (M1), O-desmethyltramadol]", "values": [
      {"measurement": "accumulation during multiple dose treatment", "setting": "[2]", "value": "approximately 2 fold"},
      {"measurement": "half-life", "setting": "[2]; single oral dose of 100 mg tramadol", "value": 9, "unit": "h"}
    ]},
    {"compound": "Cn1c(=O)c2c(ncn2C)n(C)c1=O", "note": "[caffeine, 3,7-dihydro-1,3,7-trimethyl-1H-purine-2,6-dione]", "values": [
      {"measurement": "time to maximal plasma concentrations", "setting": "after oral, rectal or parenteral administration", "value": "≤ 1", "unit": "h"},
      {"measurement": "half-life in plasma", "setting": "in vivo", "value": "3 to 7", "unit": "h"},
      {"measurement": "amount needed to affect sleep significantly", "setting": "[5]", "value": "more than 200 mg"}
    ]},
    {"compound": "CCCc1nn(C)c2c(=O)[nH]c(-c3cc(S(=O)(=O)N4CCN(C)CC4)ccc3OCC)nc12", "note": "[sildenafil, 1-[[3-(6,7-dihydro-1-methyl-7-oxo-3-propyl-1H-pyrazolo[4,3-d]pyrimidin-5-yl)-4-ethoxyphenyl]sulfonyl]-4-methyl piperazine]", "values": [
      {"measurement": "potency for PDE5 compared to PDE6", "setting": "[6]", "value": "about 10 fold"},
      {"measurement": "absolute bioavailability", "setting": "[7]", "value": "about 40%"}
    ]}
  ]
}
